Measurements: patent US20210045385A1, “PYRIDAZINONE-SUBSTITUTED KETOXIMES AS HERBICIDES” (FMC Corporation, priority 2018, published 2021)

How the values were obtained:
Format in all cases: in vivo
[1] = test system: Italian ryegrass (Lolium mutiflorum); assay: Test C preemergence, visual plant response rating
Procedure, shortened: (§1)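 Seeds sown in a loam–sand blend got a directed preemergence soil spray; postemergence plants (2–10 cm, one- to two-leaf stage) were sprayed with compound in a non-phytotoxic solvent plus surfactant. Injury was scored visually against untreated controls after about 10 d in a greenhouse on a 0–100 scale (100 = complete control).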

[2] = test system: barnyardgrass (Echinochloa crus-galli); assay: Test C preemergence, visual plant response rating
Procedure, shortened: as §1

[3] = test system: foxtail, giant (giant foxtail, Setaria faberi); assay: Test C preemergence, visual plant response rating
Procedure, shortened: as §1

kochia (Bassia scoparia) [4] = assay: Test C preemergence, visual plant response rating
Procedure, shortened: as §1

[5] = test system: pigweed (Amaranthus retroflexus); assay: Test C preemergence, visual plant response rating
Procedure, shortened: as §1

[6] = test system: ragweed (common ragweed, Ambrosia artemisiifolia); assay: Test C preemergence, visual plant response rating
Procedure, shortened: as §1

[7] = test system: Italian ryegrass (Lolium mutiflorum); assay: Test C postemergence, visual plant response rating
Procedure, shortened: as §1

[8] = test system: barnyardgrass (Echinochloa crus-galli); assay: Test C postemergence, visual plant response rating
Procedure, shortened: as §1

[9] = test system: blackgrass (Alopecurus myosuroides); assay: Test C postemergence, visual plant response rating
Procedure, shortened: as §1

corn (Zea mays) = assay: Test C postemergence, visual plant response rating
Procedure, shortened: as §1

[10] = test system: foxtail, giant (giant foxtail, Setaria faberi); assay: Test C postemergence, visual plant response rating
Procedure, shortened: as §1

[11] = test system: galium (catchweed bedstraw, Galium aparine); assay: Test C postemergence, visual plant response rating
Procedure, shortened: as §1

kochia (Bassia scoparia) [12] = assay: Test C postemergence, visual plant response rating
Procedure, shortened: as §1

[13] = test system: pigweed (Amaranthus retroflexus); assay: Test C postemergence, visual plant response rating
Procedure, shortened: as §1

[14] = test system: ragweed (common ragweed, Ambrosia artemisiifolia); assay: Test C postemergence, visual plant response rating
Procedure, shortened: as §1

[15] = test system: wheat (Triticum aestivum); assay: Test C postemergence, visual plant response rating
Procedure, shortened: as §1

[16] = test system: barnyardgrass (Echinochloa crus-galli); assay: Test D flooded paddy test, visual plant response rating; conditions: 250 g ai/ha, scale 0 to 100 (0 no effect, 100 complete control), 13 to 15 d
Procedure, shortened: (§2)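 Plants grown to the 2-leaf stage; pots flooded to 3 cm above soil and compound applied directly into paddy water, depth held throughout. Kept in greenhouse 13 to 15 d, then rated visually against untreated controls on a 0–100 scale (0 no effect, 100 complete control).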

[17] = test system: duck salad (Heteranthera limosa); assay: as above; conditions: 250 g ai/ha, scale 0 to 100 (0 no effect, 100 complete control), 13 to 15 d
Procedure, shortened: as §2

rice (Oryza sativa) = assay: as above; conditions: 250 g ai/ha, scale 0 to 100 (0 no effect, 100 complete control), 13 to 15 d
Procedure, shortened: as §2

[18] = test system: sedge umbrella (small-flower umbrella sedge, Cyperus difformis); assay: as above; conditions: 250 g ai/ha, scale 0 to 100 (0 no effect, 100 complete control), 13 to 15 d
Procedure, shortened: as §2

[19] = Test C, 31 g ai/ha, 0 is no effect, 100 is complete control
[20] = Test C, postemergence, 125 g ai/ha

Row | Compound | Ryegrass, Italian plant response rating (0 to 100 scale) ([1]; 125 g ai/ha) | Ryegrass, Italian plant response rating (0 to 100 scale) [1, 19] | Barnyardgrass plant response rating (0 to 100 scale) ([2]; 125 g ai/ha) | Barnyardgrass plant response rating (0 to 100 scale) [2, 19] | Foxtail, Giant plant response rating (0 to 100 scale) ([3]; 125 g ai/ha) | Foxtail, Giant plant response rating (0 to 100 scale) [3, 19] | Kochia plant response rating (0 to 100 scale) (kochia (Bassia scoparia) [4]; 125 g ai/ha) | Kochia plant response rating (0 to 100 scale) (kochia (Bassia scoparia) [4]; [19]) | Pigweed plant response rating (0 to 100 scale) ([5]; 125 g ai/ha) | Pigweed plant response rating (0 to 100 scale) [5, 19] | Ragweed plant response rating (0 to 100 scale) ([6]; 125 g ai/ha) | Ragweed plant response rating (0 to 100 scale) [6, 19] | Ryegrass, Italian plant response rating (0 to 100 scale) ([7]; Postemergence, 31 g ai/ha) | Ryegrass, Italian plant response rating (0 to 100 scale) [7, 20] | Barnyardgrass plant response rating (0 to 100 scale) ([8]; Postemergence, 31 g ai/ha) | Barnyardgrass plant response rating (0 to 100 scale) [8, 20] | Blackgrass plant response rating (0 to 100 scale) ([9]; Postemergence, 31 g ai/ha) | Blackgrass plant response rating (0 to 100 scale) [9, 20] | Corn plant response rating (0 to 100 scale) (corn (Zea mays); Postemergence, 31 g ai/ha) | Corn plant response rating (0 to 100 scale) (corn (Zea mays); [20]) | also measured
1 | CO/N=C(/c1cc(C)cc(Cl)c1)c1c(O)c(C)nn(C)c1=O [Compound 173] | 100 | 30 | 50 | 60 | 90 | 40 | 80 | 60 | 30 | 30 | 90 | 30 | 80 | 100 | 50 | 80 | 20 | 40 | 0 | 20 | Foxtail, Giant plant response rating (0 to 100 scale) ([10]; Postemergence, 31 g ai/ha): 30; Foxtail, Giant plant response rating (0 to 100 scale) [10, 20]: 80; Galium plant response rating (0 to 100 scale) ([11]; Postemergence, 31 g ai/ha): 90; Galium plant response rating (0 to 100 scale) [11, 20]: 100; Kochia plant response rating (0 to 100 scale) (kochia (Bassia scoparia) [12]; Postemergence, 31 g ai/ha): 60; Kochia plant response rating (0 to 100 scale) (kochia (Bassia scoparia) [12]; [20]): 90; Pigweed plant response rating (0 to 100 scale) ([13]; Postemergence, 31 g ai/ha): 70; Pigweed plant response rating (0 to 100 scale) [13, 20]: 90; Ragweed plant response rating (0 to 100 scale) ([14]; Postemergence, 31 g ai/ha): 80; Ragweed plant response rating (0 to 100 scale) [14, 20]: 100; Wheat plant response rating (0 to 100 scale) ([15]; Postemergence, 31 g ai/ha): 0; Wheat plant response rating (0 to 100 scale) [15, 20]: 0; Plant response rating, Barnyardgrass (Flood) [16]: 0; Plant response rating, Ducksalad (Flood) [17]: 0; Plant response rating, Rice (Flood) (rice (Oryza sativa)): 0; Plant response rating, Sedge, Umbrella (Flood) [18]: 0
2 | CON=C(c1cc(C)cc(Cl)c1)c1c(O)c(C)nn(C)c1=O [Compound 174] | 90 | 80 | 90 | 70 | 90 | 70 | 80 | 20 | 70 | 20 | 90 | 60 | 60 | 100 | 60 | 90 | 30 | 40 | 10 | 20 | Foxtail, Giant plant response rating (0 to 100 scale) ([10]; Postemergence, 31 g ai/ha): 50; Foxtail, Giant plant response rating (0 to 100 scale) [10, 20]: 90; Galium plant response rating (0 to 100 scale) ([11]; Postemergence, 31 g ai/ha): 100; Galium plant response rating (0 to 100 scale) [11, 20]: 100; Kochia plant response rating (0 to 100 scale) (kochia (Bassia scoparia) [12]; Postemergence, 31 g ai/ha): 70; Kochia plant response rating (0 to 100 scale) (kochia (Bassia scoparia) [12]; [20]): 90; Pigweed plant response rating (0 to 100 scale) ([13]; Postemergence, 31 g ai/ha): 60; Pigweed plant response rating (0 to 100 scale) [13, 20]: 80; Ragweed plant response rating (0 to 100 scale) ([14]; Postemergence, 31 g ai/ha): 80; Ragweed plant response rating (0 to 100 scale) [14, 20]: 90; Wheat plant response rating (0 to 100 scale) ([15]; Postemergence, 31 g ai/ha): 0; Wheat plant response rating (0 to 100 scale) [15, 20]: 0; Plant response rating, Barnyardgrass (Flood) [16]: 0; Plant response rating, Ducksalad (Flood) [17]: 0; Plant response rating, Rice (Flood) (rice (Oryza sativa)): 0; Plant response rating, Sedge, Umbrella (Flood) [18]: 0
3 | CON=C(c1cc(Cl)cc(OC)c1)c1c(O)c(C)nn(C)c1=O [Compound 175] | 50 | 30 | 70 | 50 | 70 | 30 | 80 | 40 | 30 | 0 | 100 | 40 | 50 | 70 | 50 | 70 | 20 | 30 | 10 | 20 | Foxtail, Giant plant response rating (0 to 100 scale) ([10]; Postemergence, 31 g ai/ha): 50; Foxtail, Giant plant response rating (0 to 100 scale) [10, 20]: 80; Galium plant response rating (0 to 100 scale) ([11]; Postemergence, 31 g ai/ha): 90; Galium plant response rating (0 to 100 scale) [11, 20]: 100; Kochia plant response rating (0 to 100 scale) (kochia (Bassia scoparia) [12]; Postemergence, 31 g ai/ha): 80; Kochia plant response rating (0 to 100 scale) (kochia (Bassia scoparia) [12]; [20]): 100; Pigweed plant response rating (0 to 100 scale) ([13]; Postemergence, 31 g ai/ha): 50; Pigweed plant response rating (0 to 100 scale) [13, 20]: 70; Ragweed plant response rating (0 to 100 scale) ([14]; Postemergence, 31 g ai/ha): 80; Ragweed plant response rating (0 to 100 scale) [14, 20]: 90; Wheat plant response rating (0 to 100 scale) ([15]; Postemergence, 31 g ai/ha): 0; Wheat plant response rating (0 to 100 scale) [15, 20]: 0; Plant response rating, Barnyardgrass (Flood) [16]: 0; Plant response rating, Ducksalad (Flood) [17]: 0; Plant response rating, Rice (Flood) (rice (Oryza sativa)): 0; Plant response rating, Sedge, Umbrella (Flood) [18]: 0
4 | CON=C(c1ccc(F)c(Br)c1)c1c(O)c(C)nn(C)c1=O [Compound 176] | 20 | 10 | 0 | 0 | 10 | 0 | 0 | 0 | 60 | 10 | 20 | 10 | 60 | 90 | 30 | 40 | 0 | 30 | 0 | 0 | Foxtail, Giant plant response rating (0 to 100 scale) ([10]; Postemergence, 31 g ai/ha): 10; Foxtail, Giant plant response rating (0 to 100 scale) [10, 20]: 20; Galium plant response rating (0 to 100 scale) ([11]; Postemergence, 31 g ai/ha): 60; Galium plant response rating (0 to 100 scale) [11, 20]: 90; Kochia plant response rating (0 to 100 scale) (kochia (Bassia scoparia) [12]; Postemergence, 31 g ai/ha): 20; Kochia plant response rating (0 to 100 scale) (kochia (Bassia scoparia) [12]; [20]): 70; Pigweed plant response rating (0 to 100 scale) ([13]; Postemergence, 31 g ai/ha): 70; Pigweed plant response rating (0 to 100 scale) [13, 20]: 80; Ragweed plant response rating (0 to 100 scale) ([14]; Postemergence, 31 g ai/ha): 30; Ragweed plant response rating (0 to 100 scale) [14, 20]: 70; Wheat plant response rating (0 to 100 scale) ([15]; Postemergence, 31 g ai/ha): 0; Wheat plant response rating (0 to 100 scale) [15, 20]: 0; Plant response rating, Barnyardgrass (Flood) [16]: 0; Plant response rating, Ducksalad (Flood) [17]: 0; Plant response rating, Rice (Flood) (rice (Oryza sativa)): 0; Plant response rating, Sedge, Umbrella (Flood) [18]: 0
